{
  "source": "patent US20170087165A1",
  "about": "“METHODS FOR REDUCING THE OCCURRENCE OF PRETERM DELIVERY AND OTHER PREGNANCY-RELATED CONDITIONS” (Lumara Health IP, Ltd., priority 2009, published 2017)",
  "key": {"[1]": {"assay": "Analysis of the Example 1 trial by smoking status during pregnancy", "type": "in vivo, human", "details": "women who smoked during pregnancy; 95% CI 0.0830, 0.5297", "description": "(§1) In a double-blind, placebo-controlled trial, 463 pregnant women having a documented history of spontaneous preterm delivery received weekly injections of 250 mg […] caproate (17-HPC) or an inert castor oil placebo beginning at 16 to 20weeks of gestation and continuing until delivery or 36 weeks of gestation, whichever occurred first. […] A 2:1 ratio was used for the assignment of women to the 17-HPC or placebo group, since those in the placebo group would be subjected to painful injections on a weekly basis with no possibility of direct benefit. Thus, there were 310 women in the 17-HPC group and 153 women in the placebo group. The baseline characteristics of the women in the two groups were similar in terms of the mean duration of gestation of the qualifying delivery, the mean duration of gestation at the time of randomization, race or ethnic group, marital status, body mass index (BMI), educational level, smoking status, and substance use during pregnancy. The women in the placebo group had had more previous preterm deliveries (mean of 1.6 vs. 1.4 in the 17-HPC group). 91.5% of the study participants were compliant with all of their injections, noncompliance being defined as a gap of 10 days or more between any two injections, and there was no difference in the rate of compliance between the placebo group and the 17-HPC group. Preterm delivery was defined as delivery at less than 37 completed weeks (259 days) of gestation, calculated on the basis of the date of the last menstrual period and ultrasonography results.\n(§2) In the clinical trial described in Example 1, 22.6% ([…]) of subjects in the 17-HPC group and 19.6% (30/153) of subjects in the placebo group smoked during pregnancy. […] Thus, it was apparent in the data that smoking increased the risk f or preterm delivery, measured either as delivery prior to 37 weeks of gestation."}, "[2]": {"test_system": "women who smoked during pregnancy", "assay": "Analysis of the Example 1 trial by smoking status during pregnancy", "type": "in vivo, human", "description": "as §1, §2"}, "[3]": {"test_system": "pregnant women having a documented history of spontaneous preterm delivery", "details": "cited from earlier work"}, "[4]": {"test_system": "children of the mothers who participated in the trial", "details": "cited from earlier work"}},
  "note": "Where “and” joins values, the source holds several entries; their conditions need not be identical. Equal entries are not always repeated.",
  "data": [
    {"smiles": "CCCCCC(=O)O[C@]1(C(C)=O)CC[C@H]2[C@@H]3CCC4=CC(=O)CC[C@]4(C)[C@H]3CC[C@@]21C", "note": "[17-HPC, 17alpha-hydroxyprogesterone caproate]", "values": [
      {"measurement": "odds ratio of preterm delivery (<37 weeks) 17-HPC vs placebo", "setting": "[1]", "result": "0.21 and 0.2097"},
      {"measurement": "proportion of deliveries at less than 37 weeks of gestation, subjects who did not smoke during pregnancy", "setting": "[2]; not smoking during pregnancy, 92/240, placebo 51.2% (63/123)", "result": 38.3, "unit": "%"},
      {"measurement": "proportion of deliveries at less than 37 weeks of gestation, subjects who smoked during pregnancy", "setting": "[2]; smoking during pregnancy, 23/70, placebo 70% (21/30)", "result": 32.9, "unit": "%"},
      {"measurement": "incidence of preterm delivery at less than 37 weeks of gestation", "setting": "[3]; 250 mg weekly injection from 16-20 weeks of gestation until delivery or 36 weeks, 111/306, placebo 54.9%", "result": 36.3, "unit": "%"},
      {"measurement": "incidence of delivery at less than 32 weeks", "setting": "[3]; 250 mg weekly, 35/306, P=0.02", "result": 11.4, "unit": "%"},
      {"measurement": "incidence of delivery at less than 35 weeks of gestation", "setting": "[3]; 250 mg weekly, 63/306, placebo 30.7%, P=0.02", "result": 20.6, "unit": "%"},
      {"measurement": "incidence of necrotizing enterocolitis", "setting": "[3]; infants of treated women, 0/305, placebo 2.6%, P=0.01", "result": 0, "unit": "%"},
      {"measurement": "incidence of intraventricular hemorrhage of any grade", "setting": "[3]; infants of treated women, 4/305, placebo 5.2%", "result": 1.3, "unit": "%"},
      {"measurement": "incidence of birth weight of less than 1500 g", "setting": "[3]; infants of treated women, 26/301, placebo 13.9%, P=0.08, non-significant", "result": 8.6, "unit": "%"},
      {"measurement": "incidence of need for supplemental oxygen", "setting": "[3]; infants of treated women, 45/303, placebo 23.8%", "result": 14.9, "unit": "%"},
      {"measurement": "incidence of birth weight of less than 2500 g", "setting": "[3]; infants of treated women, 82/301, placebo 41.1%, P=0.003", "result": 27.2, "unit": "%"},
      {"measurement": "rate of intraventricular hemorrhage of grades 3 to 4", "setting": "[3]; versus placebo group", "result": "no significant difference between groups"},
      {"measurement": "rates of infant death, transient tachypnea in the newborn, distress syndrome, bronchopulmonary dysplasia, need for ventilatory support, retinopathy of prematurity, and patent ductus arteriosus", "setting": "[3]; versus placebo group", "result": "slightly but not significantly lower"},
      {"measurement": "women needed to be treated to prevent one delivery before 32 weeks of gestation", "setting": "[3]; women with similar risk level", "result": 12, "unit": "women"},
      {"measurement": "health status or physical examination of the children", "setting": "[4]; mean age at follow up 48 months, 194 children in 17-HPC group vs 84 placebo", "result": "No significant differences"},
      {"measurement": "Ages and Stages Questionnaire (development in five areas)", "setting": "[4]; mean age at follow up 48 months, versus placebo", "result": "no difference"},
      {"measurement": "safety for the fetus", "setting": "[4]; weekly intramuscular injection to the mother during second and third trimesters", "result": "appears to be safe for the fetus"}
    ]}
  ]
}
